Data on 1 molecule can be found in patent US20050002862A1, “Biological markers for evaluating therapeutic treatment of inflammatory and autoimmune disorders” (priority 2000, published 2005).

Type in all cases: in vivo, human
For test [1], the system named is CD89 expression on granulocytes. Nature of the test: CD89 expression on granulocytes in blood, microvolume laser scanning cytometry, before/after oral prednisone. Conditions: after three days of oral prednisone, adjusted p-value < 0.001. An excerpt: (§1) The inventive biomarkers were identified in a study of the effects of oral prednisone on biological markers of allergy and asthma. Eighty subjects were enrolled in the study, 23 with atopic asthma, 28 with allergy alone, 26 with neither allergy nor asthma (healthy controls), and 3 with asthma alone. Allergy was defined by a positive skin prick test. Mild asthma was defined as positive methacholine challenge within the last three months, as well as one or more of documented diagnosis of asthma, history of cough, recurrent wheeze, recurrent difficult breathing, and recurrent chest tightening. […] Cellular markers in the blood samples were evaluated using the SurroScan™ microvolume laser scanning cytometry system for multiparameter cellular analysis. […] In addition, the relative levels of 49 different cell surface antigens (activation antigens, co-stimulatory molecules, adhesion molecules, antigen receptors, cytokine receptors) on specific cell populations were measured. […] Each fluorophore was measured in a separate detection channel, and images were converted to flow cytometry standard format and analyzed with FlowJo™ cytometry analysis software. […] Following data acquisition, variables were analyzed to assess differences in subject groups before drug administration, as well as changes following drug administration. […]

The subject of test [2] is CD38 expression on CD4 T cells. Nature of the test: CD38 expression on CD4 T cells in blood, cytometry, before/after oral prednisone. Conditions: after three days of oral prednisone; all disease groups; mean pre drug 32.9 (9.8); adjusted p-value < 0.001.
Text: as §1

For test [3], the system named is HLA class II expression on B cells. Nature of the test: HLA class II expression on B cells in blood, cytometry, before/after oral prednisone. Conditions: after three days of oral prednisone, all disease groups, adjusted p-value < 0.001. An excerpt: The inventive biomarkers were identified in a study of the effects of oral prednisone on biological markers of allergy and asthma. Eighty subjects were enrolled in the study, 23 with atopic asthma, 28 with allergy alone, 26 with neither allergy nor asthma (healthy controls), and 3 with asthma alone. Allergy was defined by a positive skin prick test. Mild asthma was defined as positive methacholine challenge within the last three months, as well as one or more of documented diagnosis of asthma, history of cough, recurrent wheeze, recurrent difficult breathing, and recurrent chest tightening. Approximately half of the subjects from each disease group were given oral prednisone for three days, while the other half was given a placebo. Blood samples were taken before treatment and after three days of treatment with oral prednisone or placebo. Cellular markers in the blood samples were evaluated using the SurroScan™ microvolume laser scanning cytometry system for multiparameter cellular analysis. Monoclonal antigen-specific antibodies were purchased from commercial vendors and coupled to one of three different fluorophores, Cy5, Cy5.5, and Cy7-APC. Assays were performed to monitor cell counts of more than 200 different cell populations, including granulocytes, eosinophils, monocytes, CD4 and CD8 T cells, B cells, and NK cells. In addition, the relative levels of 49 different cell surface antigens (activation antigens, co-stimulatory molecules, adhesion molecules, antigen receptors, cytokine receptors) on specific cell populations were measured. […] Each fluorophore was measured in a separate detection channel, and images were converted to flow cytometry standard format and analyzed with FlowJo™ cytometry analysis software. […] Following data acquisition, variables were analyzed to assess differences in subject groups before drug administration, as well as changes following drug administration. A total of 713 variables, including cell populations, cell surface antigen expression, and soluble factors, were analyzed. […]

Test [4] deals with CD62L expression on B cells. The test is described as follows: CD62L expression on B cells in blood, cytometry, before/after oral prednisone. Conditions: after three days of oral prednisone; all disease groups; mean pre drug 2998 (505); adjusted p-value < 0.001.
Text: as §1

For a further test, the system named is monocytes. The test is described as follows: Monocyte count in blood, cytometry, before/after oral prednisone. Conditions: after three days of oral prednisone; all disease groups; mean pre drug 369 (121); adjusted p-value < 0.001.
Text: as §1

The test system of test [5] is HLA class II expression on monocytes. Nature of the test: HLA class II expression on monocytes in blood, cytometry, before/after oral prednisone. To be noted: after three days of oral prednisone, all disease groups, adjusted p-value < 0.001. An excerpt: The inventive biomarkers were identified in a study of the effects of oral prednisone on biological markers of allergy and asthma. Eighty subjects were enrolled in the study, 23 with atopic asthma, 28 with allergy alone, 26 with neither allergy nor asthma (healthy controls), and 3 with asthma alone. Allergy was defined by a positive skin prick test. Mild asthma was defined as positive methacholine challenge within the last three months, as well as one or more of documented diagnosis of asthma, history of cough, recurrent wheeze, recurrent difficult breathing, and recurrent chest tightening. Approximately half of the subjects from each disease group were given oral prednisone for three days, while the other half was given a placebo. Blood samples were taken before treatment and after three days of treatment with oral prednisone or placebo. Cellular markers in the blood samples were evaluated using the SurroScan™ microvolume laser scanning cytometry system for multiparameter cellular analysis. Monoclonal antigen-specific antibodies were purchased from commercial vendors and coupled to one of three different fluorophores, Cy5, Cy5.5, and Cy7-APC. Assays were performed to monitor cell counts of more than 200 different cell populations, including granulocytes, eosinophils, monocytes, CD4 and CD8 T cells, B cells, and NK cells. In addition, the relative levels of 49 different cell surface antigens (activation antigens, co-stimulatory molecules, adhesion molecules, antigen receptors, cytokine receptors) on specific cell populations were measured. The prepared antibody-dye reagents were combined into cocktails and incubated with aliquots of whole or red blood cell-lysed blood in the dark at room temperature for 20 minutes. The samples were then diluted with an appropriate buffer and loaded into capillary arrays for analysis. Each fluorophore was measured in a separate detection channel, and images were converted to flow cytometry standard format and analyzed with FlowJo™ cytometry analysis software. Template gates were used to enumerate the cell populations of interest in all of the assays. Following data acquisition, variables were analyzed to assess differences in subject groups before drug administration, as well as changes following drug administration. A total of 713 variables, including cell populations, cell surface antigen expression, and soluble factors, were analyzed. […] Univariate tests were performed on individual variables, and the step-down Bonferroni p-value adjustment method of Holm was employed to control for multiple comparisons. The Bonferroni correction, which reduces the number of false positives, is described above. Univariate tests were performed on the data before and after drug administration for both the drug and placebo groups. In order to determine whether any non-normality of the data affected the tests, both non-parametric tests (sign rank or sign) and parametric paired t-tests were performed. Statistical tests for normality, skewness, and kurtosis were performed per variable to assess normality. For sufficiently normally distributed data, the paired t-test result was used; otherwise, the nonparametric result was used. All p-values were adjusted using the step-down Bonferroni method, maintaining the overall study false positive rate below 5%. […] When the analysis was performed on the separate disease classes individually, no significant differences were found before and after drug administration. Additionally, a linear-mixed model was used to evaluate fixed and random effects for the prednisone and placebo groups. This model notes the difference in response in the drug and placebo to indicate whether the observed trends can be attributed to the drug alone. The model, executed with PROC MIXED in SAS™, used the three fixed effects of drug, time, and (drug×time) to fit the data.

For the next test, the system named is MMP-3. Nature of the test: MMP-3 concentration, sandwich ELISA, before/after oral prednisone. To be noted: after three days of oral prednisone; all disease groups; mean pre drug 37 (29); adjusted p-value < 0.001. An excerpt: (§2) The inventive biomarkers were identified in a study of the effects of oral prednisone on biological markers of allergy and asthma. Eighty subjects were enrolled in the study, 23 with atopic asthma, 28 with allergy alone, 26 with neither allergy nor asthma (healthy controls), and 3 with asthma alone. Allergy was defined by a positive skin prick test. Mild asthma was defined as positive methacholine challenge within the last three months, as well as one or more of documented diagnosis of asthma, history of cough, recurrent wheeze, recurrent difficult breathing, and recurrent chest tightening. Approximately half of the subjects from each disease group were given oral prednisone for three days, while the other half was given a placebo. Blood samples were taken before treatment and after three days of treatment with oral prednisone or placebo. […] Finally, the chemiluminescent alkaline phosphatase substrate was added and incubated before reading. Standard curves and analyte amounts were determined using curve fitting techniques. Following data acquisition, variables were analyzed to assess differences in subject groups before drug administration, as well as changes following drug administration. A total of 713 variables, including cell populations, cell surface antigen expression, and soluble factors, were analyzed. […]
For orientation: ELISA stands for enzyme-linked immunosorbent assay.

The test system of the next test is SAA. The test is described as follows: SAA concentration, sandwich ELISA, before/after oral prednisone. Conditions: after three days of oral prednisone; all disease groups; mean pre drug 2.73 (3.3); adjusted p-value < 0.001.
Text: as §2

With `C[C@]12C=CC(=O)C=C1CC[C@@H]1[C@@H]2C(=O)C[C@@]2(C)[C@H]1CC[C@]2(O)C(=O)CO` [prednisone], the “CD89+ granulocyte population, Mean Post Drug (SD)” value in test [1] (all disease groups (atopic, atopic asthmatic, healthy), mean pre drug 85 (20)) is 96 (9) % of total granulocytes. Also, the “CD89 on granulocytes (expression intensity), Mean Post Drug (SD)” value in test [1] (all disease groups, mean pre drug 2047 (1549)) is 2527 (1691) arbitrary units. Also, in test [2], the “CD38+ CD4 T cells, Mean Post Drug (SD)” value was 29.3 (9.1) % of all CD4 T cells. Further, the “HLA-DQ on B cells (expression intensity), Mean Post Drug (SD)” value in test [3] (mean pre drug 3123 (1090)) was 1680 (817) arbitrary units. For the same molecule, in test [3] (mean pre drug 8108 (2711)), the “HLA-DR on B cells (expression intensity), Mean Post Drug (SD)” value is 4486 (2025) arbitrary units. Further, in test [3] (mean pre drug 11684 (3190)), the “HLA-PAN on B cells (expression intensity), Mean Post Drug (SD)” value is recorded as 6550 (3123) arbitrary units. The “CD62L on B cells (expression intensity), Mean Post Drug (SD)” value in test [4] is listed as 2479 (478) arbitrary units. Also, in the test on monocytes, the “Monocytes (count), Mean Post Drug (SD)” value was 478 (160) cells/μl. The “HLADQ+ monocyte population, Mean Post Drug (SD)” value in test [5] (mean pre drug 8.7 (4.39)) is 3.6 (2.49) % of total monocytes. In addition, in test [5] (mean pre drug 84.4 (14.0)), the “HLADR+ monocyte population, Mean Post Drug (SD)” value was 75.4 (16.9) % of total monocytes. Moreover, in test [5] (mean pre drug 91.8 (8.4)), the “HLAPAN+ monocyte population, Mean Post Drug (SD)” value was 83.0 (15.1) % of total monocytes. Besides, in test [5] (mean pre drug 165 (103)), the “HLA-DQ on monocytes (expression intensity), Mean Post Drug (SD)” value is 69 (52) arbitrary units. In addition, in test [5] (mean pre drug 2966 (1068)), the “HLA-DR on monocytes (expression intensity), Mean Post Drug (SD)” value was 1970 (729) arbitrary units. In addition, the “HLA-PAN on monocytes (expression intensity), Mean Post Drug (SD)” value in test [5] (mean pre drug 4961 (1738)) was 3196 (1046) arbitrary units. For the same molecule, the “MMP-3 concentration, Mean Post Drug (SD)” value in the test with MMP-3 is on record as 188 (140) ng/ml. Also, the “SAA concentration, Mean Post Drug (SD)” value with SAA was 6.71 (14.5) μg/ml.
